Assay results as given in ChEMBL document CHEMBL3085706, “Scorpiand-like azamacrocycles prevent the chronic establishment of Trypanosoma cruzi in a murine model” (Eur J Med Chem, 2013).
Activity calls are given as the source filed them. No cut-off for these calls is given here.

How the values were obtained:
Trypanosoma cruzi [1] = test: Trypanocidal activity against extracellular trypomastigote form of Trypanosoma cruzi IRHOD/CO/2008/SN3 after 24 hrs by Neubauer hemocytometric analysis; type: functional, organism-based; settings: IRHOD/CO/2008/SN3, 24 h
Trypanosoma cruzi [2] = test: Trypanocidal activity against intracellular amastigote form of Trypanosoma cruzi IRHOD/CO/2008/SN3 infected in African green monkey Vero cells after 72 hrs by Giemsa staining assay; type: functional, organism-based; settings: IRHOD/CO/2008/SN3, Vero
Trypanosoma cruzi [3] = test: Trypanocidal activity against extracellular epimastigote form of Trypanosoma cruzi IRHOD/CO/2008/SN3 after 72 hrs by Neubauer hemocytometric analysis; type: functional, organism-based; settings: IRHOD/CO/2008/SN3, 72 h
Trypanosoma cruzi [4] = test: Trypanocidal activity against epimastigote form of Trypanosoma cruzi IRHOD/CO/2008/SN3 assessed as induction of ethanol production at IC25 after 96 hrs by NMR spectra analysis; type: functional, organism-based
Trypanosoma cruzi [5] = test: Trypanocidal activity against epimastigote form of Trypanosoma cruzi IRHOD/CO/2008/SN3 assessed as inhibition of acetate excretion at IC25 after 96 hrs by NMR spectra analysis; type: functional, organism-based
Trypanosoma cruzi [6] = test: Trypanocidal activity against epimastigote form of Trypanosoma cruzi IRHOD/CO/2008/SN3 assessed as inhibition of succinate excretion at IC25 after 96 hrs by NMR spectra analysis; type: functional, organism-based
[7] = Inhibition of Escherichia coli Mn-SOD assessed as reduction of nitrobluetetrazolium measured for 10 mins by spectrophotometric analysis
[8] = Inhibition of Fe-SOD in Trypanosoma cruzi IRHOD/CO/2008/SN3 epimastigotes assessed as reduction of nitrobluetetrazolium measured for 10 mins by spectrophotometric analysis
Trypanosoma cruzi [9] = test: Inhibition of Fe-SOD in Trypanosoma cruzi IRHOD/CO/2008/SN3 epimastigotes assessed as reduction of nitrobluetetrazolium at 12.5 to 25 uM measured for 10 mins by spectrophotometric analysis relative to control
Trypanosoma cruzi [10] = test: Trypanocidal activity against epimastigote form of Trypanosoma cruzi IRHOD/CO/2008/SN3 assessed as appearance of swollen mitochondria at IC25 after 96 hrs by transmission electron microscopic analysis; type: functional, organism-based
Trypanosoma cruzi [11] = test: Trypanocidal activity against epimastigote form of Trypanosoma cruzi IRHOD/CO/2008/SN3 assessed as disorganization of cytoplasm at IC25 after 96 hrs by transmission electron microscopic analysis; type: functional, organism-based
Trypanosoma cruzi [12] = test: Trypanocidal activity against bloodstream trypomastigote form of Trypanosoma cruzi IRHOD/CO/2008/SN3 infected in BALB/c mouse assessed as reduction of anti-parasitic Ig-G level in serum at 5 mg/kg/day, ip administered for 5 days measured over 40 to 120 days post-infection by ELISA; type: functional, organism-based
Trypanosoma cruzi [13] = test: Trypanocidal activity against bloodstream trypomastigote form of Trypanosoma cruzi IRHOD/CO/2008/SN3 infected in BALB/c mouse assessed as reduction of circulating parasite burden at 5 mg/kg, ip administered for 5 to 10 days measured 22 to 60 days post-infection by Neubauer hemocytometric analysis; type: functional, organism-based; set-up: dose 5 mg/kg
Trypanosoma cruzi [14] = test: Trypanocidal activity against trypomastigote form of Trypanosoma cruzi IRHOD/CO/2008/SN3 infected in African green monkey Vero cells assessed as inhibition of trypomastigotes released in culture medium at IC25 relative to control; type: functional
Trypanosoma cruzi [15] = test: (§1) Trypanocidal activity against amastigote form of Trypanosoma cruzi IRHOD/CO/2008/SN3 infected in African green monkey Vero cells assessed as inhibition of amastigotes load per cell at IC25 preincubated for 12 hrs followed by compound washout measured after 10 days by Giemsa staining-based microscopic analysis relative to control; type: functional
Trypanosoma cruzi [16] = test: as §1, with “parasite infection rate” for “amastigotes load per cell”; type: functional
[17] = Selectivity index, ratio of IC50 for African green monkey Vero cells to IC50 for extracellular trypomastigote form of Trypanosoma cruzi IRHOD/CO/2008/SN3; type: toxicity, cell-based; settings: read-out: Ratio IC50
[18] = Selectivity index, ratio of IC50 for African green monkey Vero cells to IC50 for intracellular amastigote form of Trypanosoma cruzi IRHOD/CO/2008/SN3; type: toxicity, cell-based; settings: read-out: Ratio IC50
[19] = Selectivity index, ratio of IC50 for African green monkey Vero cells to IC50 for extracellular epimastigote form of Trypanosoma cruzi IRHOD/CO/2008/SN3; type: toxicity, cell-based; settings: read-out: Ratio IC50
Vero = test: Cytotoxicity against African green monkey Vero cells after 72 hrs by flow cytometric analysis; type: cell-based; settings: Chlorocebus sabaeus
Trypanosoma cruzi [20] = test: Trypanocidal activity against epimastigote form of Trypanosoma cruzi IRHOD/CO/2008/SN3 assessed as inhibition of lactate excretion at IC25 after 96 hrs by NMR spectra analysis; type: functional, organism-based
Trypanosoma cruzi [21] = test: Trypanocidal activity against epimastigote form of Trypanosoma cruzi IRHOD/CO/2008/SN3 assessed as inhibition of alanine excretion at IC25 after 96 hrs by NMR spectra analysis; type: functional, organism-based

SMILES | IC50 (Trypanosoma cruzi [1]) [µM] | IC50 (Trypanosoma cruzi [2]) [µM] | IC50 (Trypanosoma cruzi [3]) [µM] | selectivity ratio [17] | selectivity ratio [18] | selectivity ratio [19] | IC50 (Vero) [µM] | other results
Cl.c1ccc(CNCCN2CCNCc3cccc(n3)CNCC2)nc1 | 18 | 10 | 9 | 20.3 | 36.4 | 42.2 | 366 | Activity (Trypanosoma cruzi [4]): Active; inhibition (Trypanosoma cruzi [5]): Active; inhibition (Trypanosoma cruzi [6]): Active; IC50 [7]: 62.5 µM; IC50 [8]: 8.2 µM; inhibition (Trypanosoma cruzi [9]): 100%; Activity (Trypanosoma cruzi [10]): Active; Activity (Trypanosoma cruzi [11]): Active; Activity (Trypanosoma cruzi [12]): Active; Activity (Trypanosoma cruzi [13]): Active; inhibition (INH) (Trypanosoma cruzi [14]): 82%; inhibition (INH) (Trypanosoma cruzi [15]): 60%; inhibition (INH) (Trypanosoma cruzi [16]): 77%; inhibition (Trypanosoma cruzi [20]): Active; inhibition (Trypanosoma cruzi [21]): Active
c1cc2nc(c1)CNCCN(CCNCc1cccc3ccccc13)CCNC2 | 19.5 | 16.1 | 10 | 16.7 | 20.2 | 31.2 | 325 | 
NCCCNCCN1CCNCc2cccc(n2)CNCC1 | 27.6 | 20 | 21 | 6.1 | 8.3 | 8 | 167 | 
